Data as given in ChEMBL document CHEMBL1157528, “Mixed tetraoxanes containing the acetone subunit as antimalarials” (Bioorg Med Chem, 2008).
pIC50: −log10 of the molar value. The source made the active and inactive calls. The calls are words filed in the database; no cut-off is given here.

What was measured:
[1] = Metabolic stability in human liver microsomes assessed as half life at 10 uM; type: ADME, Microsome
Plasmodium berghei [2] = test: Antimalarial activity as survival time against Plasmodium berghei KBG173 infected CD1 mice (Mus musculus) at 160 mg/kg/day subcutaneous dose; type: functional
Plasmodium berghei [3] = test: Antimalarial activity as reduced parasitaemia after 10 days against Plasmodium berghei KBG173 infected CD1 mice (Mus musculus) at 40 mg/kg/day subcutaneous dose; type: functional; parameters: scale not given: the % may be the effect or the level left
Plasmodium berghei [4] = test: Antimalarial activity as reduced parasitaemia after 13 days against Plasmodium berghei KBG173 infected CD1 mice (Mus musculus) at 20 mg/kg/day subcutaneous dose; type: functional; parameters: scale not given: the % may be the effect or the level left
Plasmodium falciparum [5] = test: microbe, parasite or virus in culture; settings: TM91C235
Description: Antimalarial activity against mefloquine, chloroquine and quinine-resistant Plasmodium falciparum TM91C235

Plasmodium berghei [6] = test: Antimalarial activity as reduced parasitaemia at day 17 against Plasmodium berghei KBG173 infected CD1 mice (Mus musculus) at 320 mg/kg/day peroral dose; type: functional; parameters: scale not given: the % may be the effect or the level left; settings: route oral
Plasmodium berghei [7] = test: Antimalarial activity as survival time against Plasmodium berghei KBG173 infected CD1 mice (Mus musculus) at 80 mg/kg/day peroral dose 3 - 5 days post infection; type: functional; settings: route oral
Plasmodium falciparum [8] = test: microbe, parasite or virus in culture; settings: D6
Description: Antimalarial activity against chloroquine and pyrimethamine-sensitive Plasmodium falciparum D6

Plasmodium berghei [9] = test: Antimalarial activity against Plasmodium berghei KBG173 infected CD1 mice (Mus musculus) assessed as survival time at 80 mg/kg/day, subcutaneously administered on day 3 twice a day; type: functional; settings: route subcutaneous
Plasmodium berghei [10] = test: Antimalarial activity as reduced parasitaemia after 10 days against Plasmodium berghei KBG173 infected CD1 mice (Mus musculus) at 20 mg/kg/day subcutaneous dose; type: functional; parameters: scale not given: the % may be the effect or the level left
Plasmodium berghei [11] = test: Antimalarial activity as reduced parasitaemia after 27 days against Plasmodium berghei KBG173 infected CD1 mice (Mus musculus) at 40 mg/kg/day subcutaneous dose; type: functional; parameters: scale not given: the % may be the effect or the level left
Plasmodium falciparum [12] = test: microbe, parasite or virus in culture; settings: W2
Description: Antimalarial activity against chloroquine and pyrimethamine-resistant Plasmodium falciparum W2

Plasmodium berghei [13] = test: Antimalarial activity as survival time against Plasmodium berghei KBG173 infected CD1 mice (Mus musculus) at 80 mg/kg/day subcutaneous dose; type: functional
Plasmodium berghei [14] = test: Antimalarial activity as reduced parasitaemia after 27 days against Plasmodium berghei KBG173 infected CD1 mice (Mus musculus) at 320 mg/kg/day peroral dose; type: functional; parameters: scale not given: the % may be the effect or the level left; settings: route oral
[15] = Metabolic stability in mouse liver microsomes assessed as half life at 10 uM; type: ADME, Microsome
Plasmodium berghei [16] = test: Antimalarial activity as reduced parasitaemia after 24 days against Plasmodium berghei KBG173 infected CD1 mice (Mus musculus) at 320 mg/kg/day peroral dose; type: functional; parameters: scale not given: the % may be the effect or the level left; settings: route oral
Plasmodium berghei [17] = test: Antimalarial activity as reduced parasitaemia after 31 days against Plasmodium berghei KBG173 infected CD1 mice (Mus musculus) at 40 mg/kg/day subcutaneous dose; type: functional; parameters: scale not given: the % may be the effect or the level left
Plasmodium berghei [18] = test: Antimalarial activity as reduced parasitaemia after 20 days against Plasmodium berghei KBG173 infected CD1 mice (Mus musculus) at 40 mg/kg/day subcutaneous dose; type: functional; parameters: scale not given: the % may be the effect or the level left
Plasmodium berghei [19] = test: Antimalarial activity as reduced parasitaemia at day 20 against Plasmodium berghei KBG173 infected CD1 mice (Mus musculus) at 320 mg/kg/day peroral dose; type: functional; parameters: scale not given: the % may be the effect or the level left; settings: route oral
Plasmodium berghei [20] = test: Antimalarial activity as reduced parasitaemia at day 6 in Plasmodium berghei KBG173 infected CD1 mice (Mus musculus) at 20 mg/kg/day subcutaneous dose; type: functional; parameters: scale not given: the % may be the effect or the level left
Plasmodium berghei [21] = test: Antimalarial activity as parasite-free survivors at day 31 of Plasmodium berghei KBG173 infected CD1 mice (Mus musculus) at 20 mg/kg/day subcutaneous dose; type: functional, organism-based
Plasmodium berghei [22] = test: Antimalarial activity as survival time in Plasmodium berghei KBG173 infected CD1 mice (Mus musculus) at 320 mg/kg/day peroral dose; type: functional; settings: route oral
Plasmodium berghei [23] = test: Antimalarial activity as reduced parasitaemia after 24 days against Plasmodium berghei KBG173 infected CD1 mice (Mus musculus) at 40 mg/kg/day subcutaneous dose; type: functional; parameters: scale not given: the % may be the effect or the level left
Plasmodium berghei [24] = test: Antimalarial activity as survival time in Plasmodium berghei KBG173 infected CD1 mice (Mus musculus) at 20 mg/kg/day peroral dose; type: functional; settings: route oral
Plasmodium falciparum [25] = test: Relative activity against Plasmodium falciparum W2 as ratio of IC90 to IC50; type: functional
Plasmodium berghei [26] = test: Antimalarial activity as reduced parasitaemia after 31 days against Plasmodium berghei KBG173 infected CD1 mice (Mus musculus) at 320 mg/kg/day peroral dose; type: functional; parameters: scale not given: the % may be the effect or the level left; settings: route oral
Plasmodium berghei [27] = test: Antimalarial activity as parasite-free survivors at day 31 of Plasmodium berghei KBG173 infected CD1 mice (Mus musculus) at 20 mg/kg/day peroral dose; type: functional, organism-based
Plasmodium berghei [28] = test: Antimalarial activity as reduced parasitaemia after 17 days against Plasmodium berghei KBG173 infected CD1 mice (Mus musculus) at 40 mg/kg/day subcutaneous dose; type: functional; parameters: scale not given: the % may be the effect or the level left
Plasmodium berghei [29] = test: Antimalarial activity as reduced parasitaemia after 13 days against Plasmodium berghei KBG173 infected CD1 mice (Mus musculus) at 40 mg/kg/day subcutaneous dose; type: functional; parameters: scale not given: the % may be the effect or the level left
Plasmodium berghei [30] = test: Antimalarial activity as reduced parasitaemia after 17 days against Plasmodium berghei KBG173 infected CD1 mice (Mus musculus) at 20 mg/kg/day subcutaneous dose; type: functional; parameters: scale not given: the % may be the effect or the level left
[31] = Cytotoxicity against human NCI60 cells; type: functional
Plasmodium berghei [32] = test: Antimalarial activity as parasite-free survivors at day 31 of Plasmodium berghei KBG173 infected CD1 mice (Mus musculus) at 160 mg/kg/day subcutaneous dose; type: functional, organism-based

Compound `CC(=O)O[C@H]1C[C@H]2[C@@H]([C@H](OC(C)=O)C[C@@H]3CC4(CC[C@@]32C)OOC(C)(C)OO4)[C@@H]2CC[C@H]([C@H](C)CCC(=O)NCCN(C)C)[C@@]12C` has a half-life at 10 µM [1] of over 1 h, a Survival (Plasmodium berghei [2]) of 31 days and an Activity (Plasmodium berghei [3]) of 0%. It also gave an Activity (Plasmodium berghei [4]) of 8.72%, a pIC50 (Plasmodium falciparum [5]) of 8.15 and an IC90 (Plasmodium falciparum [5]) of 0.0198 µM. The Activity (Plasmodium berghei [6]) was 2.36%, the Survival (Plasmodium berghei [7]) was 14 days and the pIC50 (Plasmodium falciparum [8]) was 7.94. For the same compound, the IC90 (Plasmodium falciparum [8]) was 0.0262 µM, the Survival (Plasmodium berghei [9]) was 16 days and the Activity (Plasmodium berghei [10]) was 0.032%. The Activity (Plasmodium berghei [11]) was 0%, the pIC50 (Plasmodium falciparum [12]) was 8.01 and the IC90 (Plasmodium falciparum [12]) was 0.0168 µM. For the same compound, the Survival (Plasmodium berghei [13]) was 25 days, the Activity (Plasmodium berghei [14]) was 0% and the half-life at 10 µM [15] was over 1 h. The Activity (Plasmodium berghei [16]) was 1.4%, the Activity (Plasmodium berghei [17]) was 0% and the Activity (Plasmodium berghei [18]) was 3.9%. For the same compound, the Activity (Plasmodium berghei [19]) was 1.9%, the Activity (Plasmodium berghei [20]) was 0.002% and the Activity (Plasmodium berghei [21]) was “inactive”. It also gave a Survival (Plasmodium berghei [22]) of 29 days, an Activity (Plasmodium berghei [23]) of 12.53% and a Survival (Plasmodium berghei [24]) of 8 days. For the same compound, the Ratio (Plasmodium falciparum [25]) was 1.71, the Activity (Plasmodium berghei [26]) was 0% and the Activity (Plasmodium berghei [27]) was “inactive”. For the same compound, the Activity (Plasmodium berghei [28]) was 15.48%, the Activity (Plasmodium berghei [29]) was 0.004% and the Activity (Plasmodium berghei [30]) was 26.8%. For the same compound, the GI50 [31] was 3.39 µM, the LC50 [31] was 22.4 µM and the TGI [31] was 10.2 µM. The Activity (Plasmodium berghei [32]) was “Active”.
